Columns and labels:
[1] = tested on: PCK rat (a recessive PKD model); conditions: Wang et al., 2008; cited from earlier work
[2] = tested on: HDAC5 phosphorylation (Ser489); test: HDAC5 phosphorylation immunoblot in MEK cells without or with fluid flow; format: cell-based, mouse; conditions: for fluid flow-induced HDAC5 phosphorylation: fluid flow 0.2 ml/min, GÖ6983 10 μM, GdCl3 20 μM; for HDAC5 phosphorylation in the absence of fluid flow: no fluid flow, PMA 100 nM, ionomycin 1 μM, phospho-specific antibody
Procedure: (§1) Confluent mouse embryonic kidney (MEK) cells were cultured for 1-2 additional days in the absence of interferon-γ to induce optimal differentiation (Nauli et al., 2003). Hanks' Balanced Salt Solution with 20.0 mM HEPES buffer (pH 7.4) and 1% bovine serum albumin was used for calcium imaging and cell culture media for the other experiments. Fluid flow was applied at 0.2 ml/min using a peristaltic pump in 35 mm dishes or 6-well plates, with tubings connected through two 18 Gauge needles at opposing sides of a well (FIG. 9A). Time-lapse imaging was performed on an Axiovert 200M inverted microscope (Karl Zeiss Microlmaging Inc., Thornwood, N.Y.) equipped with a 20×/0.8 NA Plan-Apochromat objective, a Pecon XL-3 environmental chamber (PeCon GmbH, Erbach, Germany) and an AxioCam HSm r1.1 digital monochrome camera (Karl Zeiss). In drug treatments, […] (Sigma-Aldrich, St. Louis, Mo.) was used at 100 nM, GÖ6983 (Sigma-Aldrich) at 10 μM, ionomycin (Sigma-Aldrich) at 1 μM, and GdCl3 (Sigma-Aldrich) at 20 μM.
Whether fluid flow across monolayers of MEK cells led to endogenous HDAC5 phosphorylation was determined using a phospho-specific antibody against HDAC5 Ser489 site (equivalent of Ser498 of human HDAC5) (Bossuyt et al., 2008). While HDAC5 phosphorylation level was low prior to fluid flow onset, an increase in phosphorylation was observed 30 minutes after the start of fluid flow and maintained for several hours thereafter (FIGS. 1A and 1B). The increase in HDAC5 phosphorylation was accompanied by an increase in the level of total HDAC5 (FIGS. 12A, C), consistent with the flow-induced gene expression of HDAC5 observed in the microarray analysis (Table 2). […] By contrast, HDAC5 phosphorylation was induced by the calcium ionophore, ionomycin, in the absence of fluid flow (FIG. 1D, see also FIG. 20 for the quantification of HDAC5 phosphorylation levels under various conditions). Treatment with PMA, an activator of protein kinase C(PKC), stimulated HDAC5 phosphorylation in the absence of fluid flow, while the PKC inhibitor GÖ6983 inhibited flow-induced HDAC5 phosphorylation (FIGS. 1D and 20).

[3] = tested on: HDAC5 nuclear export; test: HDAC5-GFP nuclear export in transfected MEK cells; format: cell-based, mouse; conditions: for fluid flow-induced HDAC5 nuclear export: GÖ6983 10 μM, GdCl3
Procedure: as §1
To determine whether HDAC5 was exported from the nucleus in response to fluid flow, FLAG-MEF2C and HDAC5-GFP constructs were co-transfected into Pkd1^+/+ and Pkd1^−/− MEK cells, and both tagged proteins correctly localized to the nucleus. Stimulation of MEK cells with fluid flow for 30 min led to translocation of HDAC5-GFP, but not FLAG-MEF2C, from the nucleus in Pkd1^+/+. MEK cells, but not in Pkd1^−/− MEK cells (FIG. 2A). […] By contrast, a HDAC5-GFP mutant lacking the 14-3-3 phosphorylation sites (HDAC5^S250/489A) was not exported (FIG. 2C), consistent with a requirement for phosphorylation of these regulatory sites in fluid flow-induced nuclear export of HDAC5. HDAC5 nuclear export also failed in Pkd1^−/− MEK cells, cells treated with GdCl3 (FIG. 2C), or the PKC inhibitor GÖ6983, while treatment with PMA stimulated HDAC5 nuclear exit even without fluid flow (FIG. 2D).

[4] = tested on: PKD^ws25/− mice; test: SAHA treatment of PKDws25/− mice (mouse model of PKD); conditions: 4 weeks
Procedure: PKD^ws25/− mice (Wu et al., 1998) were obtained from Albert Einstein College of Medicine (Bronx, N.Y.). PKD^ws25/− mice escape the embryonic lethality of the PKD^−/− phenotype, but recapitulate the human ADPKD phenotype in that they develop cysts early in life (Wu et al., 1998). Eight week old PKD^ws25/− mice (n=15 per group) were treated with 100 mg/kg vorinostat (SAHA) or vehicle (Veh). Animals were dosed daily by i.p. for 5 days followed by 2 days off, for a total of 4 weeks. […] At the end of study, animals were sacrificed and blood taken for analysis of blood urea nitrogen (BUN) levels using the manufacturer's protocol for Hitachi Urea Nitrogen (BUN) Reagent Set (Pointe Scientific, Inc., Canton, Mich.).

[5] = tested on: Pkd2−/− embryos; test: TSA injection of pregnant Pkd2+/- mice, histology of E18.5 embryonic kidneys; format: in vivo, mouse
Procedure: (§2) Pkd2^+/− mice were originally provided by S. Somlo (Yale University, New Haven, Conn.) and Hdac5^−/− mice by E. Olson (University of Texas Southwestern Medical Center, Dallas, Tex.). To obtain embryos of various genotypes, the mutant mice were paired and the pregnant females were sacrificed on 18.5 DPC to collect embryonic kidneys. For TSA treatment experiments pregnant Pkd2^+/− females paired with Pkd2^+/− males were subcutaneously injected daily, from 10.5 dpc to 18.5 dpc with 0.5 μg TSA (Biomol, Enzo Life Sciences Inc., Farmingdale, N.Y.) per gram mouse body weight or DMSO (solvent of TSA) in phosphate buffered saline (PBS). At the end of this treatment, females were sacrificed and embryonic kidneys were collected.
(§3) To test further the possibility that reducing the activity of HDAC5 could suppress cyst formation in Pkd2^−/− embryos, trichostatin A (TSA), a chemical inhibitor against type I and II HDACs (Drummond et al., 2005), was injected into pregnant Pkd2+/− female mice from 10.5 dpc after mating with Pkd2+/− males, and embryonic kidneys were analyzed at 18.5 dpc.

[6] = tested on: MEF2C; test: Immunoblot of MEF2C in Pkd2−/− embryonic kidneys from TSA-treated mothers; format: in vivo, mouse; conditions: TSA-treated vs DMSO-treated mothers
Procedure: as §2, §3

[7] = tested on: MIM; test: Immunoblot of MIM in Pkd2−/− embryonic kidneys from TSA-treated mothers; format: in vivo, mouse; conditions: TSA-treated vs DMSO-treated mothers
Procedure: as §2, §3

In the case of “1-deamino-8-D-arginine vasopressin [dDAVP]”, the “effect on cystic disease” value [1] is given as “aggravated cystic disease”.

With `[Cl][Gd]([Cl])[Cl]` [GdCl3] the “fluid flow-induced HDAC5 phosphorylation” value [2] was “blocked” and the “fluid flow-induced HDAC5 nuclear export” value [3] was “failed”.

With `COc1ccc2c(c1)c(C1=C(c3c[nH]c4ccccc34)C(=O)NC1=O)cn2CCCN(C)C` [GÖ6983] the “fluid flow-induced HDAC5 phosphorylation” value [2] was “inhibited” and the “fluid flow-induced HDAC5 nuclear export” value [3] was “failed”.

In the case of `CCCCCCCCCCCCCC(=O)O[C@@H]1[C@@H](C)[C@@]2(O)[C@@H](C=C(CO)C[C@]3(O)C(=O)C(C)=C[C@@H]23)[C@@H]2C(C)(C)[C@]12OC(C)=O` [PMA, 12-myristate 13-acetate], the “HDAC5 phosphorylation in the absence of fluid flow” value [2] is reported as “stimulated” and the “HDAC5 nuclear exit without fluid flow” value ([3]; no fluid flow, 100 nM PMA) is reported as “stimulated”.

In the case of `O=C(CCCCCCC(=O)Nc1ccccc1)NO` [SAHA, suberoylanilide hydroxamic acid], the “blood urea nitrogen (BUN) levels” value ([4]; 100 mg/kg i.p. daily 5 days on, 2 days off, compared to vehicle) is reported as “significantly lower”, the animals lost ([4]; 100 mg/kg i.p., n=15 per group) is reported as “one” and the “renal tubular epithelial morphology” value ([4]; 100 mg/kg i.p., kidney images vs control) is reported as “well organized, nearly normal epithelial morphology”.

For `CC(/C=C/C(=O)NO)=C\[C@@H](C)C(=O)c1ccc(N(C)C)cc1` [TSA, trichostatin A], the “kidney cyst formation in Pkd2−/− embryos” value ([5]; 0.5 μg TSA per gram body weight s.c. daily to mothers 10.5-18.5 dpc, compared to DMSO-injected mothers) was “drastically reduced”, the “morphology of renal tubules in Pkd2+/+ embryonic kidneys” value ([5]; Pkd2+/+ embryos from TSA-injected mothers) was “did not affect” and the “morphology of cyst lining cells in Pkd2−/− kidneys” value ([5]; TSA-treated mothers, as opposed to flat morphology of Pkd2−/− cyst lining cells) was “more normal cuboidal morphology”. For the same compound, the “enhancement of expression of MEF2C” value [6] was 4 fold and the “expression of MIM” value [7] was “drastically increased”.

For `C[C@H](CCC(=O)O)C[C@H](C)C[C@H](C)C(=O)/C=C(\O)[C@H](C)C[C@H](C)C/C=C/[C@@H](C)[C@@H](O)[C@@H](C)[C@@H](O)C[C@@H]1CC[C@@](C)([C@H]2CC[C@@](C)([C@@H](C)O)O2)O1` [ionomycin], the “HDAC5 phosphorylation in the absence of fluid flow” value [2] was “induced”.
